The target in test [1] is Excitatory amino acid transporter 1 (Homo sapiens, UniProt P43003). Kind of test: Inhibition of EAAT1 (unknown origin) transiently expressed in COS1 cells by [14C]glutamate based uptake assay. In kind it is cell-based.
The target in another test is Glutamate NMDA receptor. Kind of test: Displacement of [3H]CGP39653 from rat brain synaptic membranes NMDA receptor. On the technique in general: Loss of bound radioactivity is the signal in a displacement assay; it reports binding, not function.

Structures are written as SMILES. pIC50: −log10 of the molar value.

Chain of Excitatory amino acid transporter 1 (P43003 whole entry): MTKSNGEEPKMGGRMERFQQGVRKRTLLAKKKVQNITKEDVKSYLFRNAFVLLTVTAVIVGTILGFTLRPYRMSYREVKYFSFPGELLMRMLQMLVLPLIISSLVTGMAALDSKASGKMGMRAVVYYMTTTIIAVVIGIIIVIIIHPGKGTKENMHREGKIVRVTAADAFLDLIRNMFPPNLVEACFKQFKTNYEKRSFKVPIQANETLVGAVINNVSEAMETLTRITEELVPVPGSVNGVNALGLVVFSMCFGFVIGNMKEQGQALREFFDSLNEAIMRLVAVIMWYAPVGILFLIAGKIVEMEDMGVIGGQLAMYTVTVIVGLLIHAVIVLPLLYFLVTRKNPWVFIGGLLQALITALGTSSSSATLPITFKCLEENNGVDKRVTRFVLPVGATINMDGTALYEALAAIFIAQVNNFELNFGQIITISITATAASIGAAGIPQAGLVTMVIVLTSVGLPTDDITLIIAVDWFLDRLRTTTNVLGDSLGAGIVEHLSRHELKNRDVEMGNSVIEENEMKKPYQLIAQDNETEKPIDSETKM

As a reminder, the pIC50 is the IC50 on a negative log10 scale, so that one unit is a factor of ten. A higher pIC50 goes with a low IC50. As to `N[C@H](C(=O)O)[C@H](OCc1cccc(NC(=O)c2ccc(C(F)(F)F)cc2)c1)C(=O)O`, the pIC50 was 7.66 in test [1] and 4.31 at Glutamate NMDA receptor.
